From BindingDB's records for doi:10.1016/j.bmc.2016.11.012 (China Pharmaceutical University, 2017)

Test: Inhibition of rabbit thrombin-induced platelet aggregation in rabbit platelet-rich plasma preincubated with rabbit liver microsomes for 4 hrs followed by addition to platelet

Compared with `CC(C)(C)OC(=O)/N=C(\N)c1ccc(CC2NCCn3c2nc2cc(C4(C(=O)N5CCCC5)CCCC4)ccc23)cc1` (stereo unspecified), `CCOC(=O)/N=C(\N)c1ccc(CC2NCCn3c2nc2cc(C4(C(=O)N5CCCC5)CCCC4)ccc23)cc1` (stereo unspecified) is 11-fold higher in IC50: 8.16 µM for the first, 88.2 µM for the second. The first is the more potent here.

First: Cc1nc(C)c(OC(=O)/N=C(\N)c2ccc(CC3NCCn4c3nc3cc(C5(C(=O)N6CCCC6)CCCC5)ccc34)cc2)nc1C (stereo unspecified)
Second: CC(C)COC(=O)/N=C(\N)c1ccc(CC2NCCn3c2nc2cc(C4(C(=O)N5CCCC5)CCCC4)ccc23)cc1 (stereo unspecified)
The IC50 of the first is 84-fold lower: 1.95 µM for the first, 164 µM for the second. The first is the more potent here.

`CC(C)(C)OC(=O)/N=C(\N)c1ccc(CC2c3nc4cc(C5(C(=O)N6CCCC6)CCCC5)ccc4n3CCN2C(=O)OC(C)(C)C)cc1` (stereo unspecified) and `CC(C)COC(=O)/N=C(\N)c1ccc(CC2c3nc4cc(C5(C(=O)N6CCCC6)CCCC5)ccc4n3CCN2C(=O)OCC(C)C)cc1` (stereo unspecified) cannot be ordered by IC50: greater than 1000 µM for the first, greater than 1000 µM for the second.

First: N/C(=N\C(=O)OCc1ccccc1)c1ccc(CC2c3nc4cc(C5(C(=O)N6CCCC6)CCCC5)ccc4n3CCN2C(=O)OCc2ccccc2)cc1 (stereo unspecified)
Second: N/C(=N\C(=O)OCc1ccccc1)c1ccc(CC2NCCn3c2nc2cc(C4(C(=O)N5CCCC5)CCCC4)ccc23)cc1 (stereo unspecified)
The IC50 of the first is higher: greater than 1000 µM for the first, 91.2 µM for the second. The second is the more potent here.

Compared with `CCCCCCOC(=O)/N=C(\N)c1ccc(CC2NCCn3c2nc2cc(C4(C(=O)N5CCCC5)CCCC4)ccc23)cc1` (stereo unspecified), `CCCCCCOC(=O)/N=C(\N)c1ccc(CC2c3nc4cc(C5(C(=O)N6CCCC6)CCCC5)ccc4n3CCN2C(=O)OCCCCCC)cc1` (stereo unspecified) is 3.6-fold higher in IC50: 25.3 µM for the first, 91.5 µM for the second.

`CCCCCCOC(=O)N=C(N)c1ccc(NCc2nc3cc(C(=O)N(CCC(=O)OCC)c4ccccn4)ccc3n2C)cc1` [BIBR-1048] showed an IC50 of 0.554 µM.
